Reference: publication PMC5513037, “Examining the influence of specificity ligands and ATP-competitive ligands on the overall effectiveness of bivalent kinase inhibitors” (Proteome Science, 2017)

Legend:
Assay in all cases: KAM-matrix competition in K562 lysate;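 for 0.001 uM KAM: median log10 fold change of treatment over DMSO control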;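 for 0.01 uM KAM: median log10 fold change of treatment over DMSO control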;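 for 0.1 uM KAM: median log10 fold change of treatment over DMSO control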;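 for 1 uM KAM: median log10 fold change of treatment over DMSO control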;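 for 10 uM KAM: median log10 fold change of treatment over DMSO control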
Format in all cases: binding
ADCK3 = biological target: T1, ADCK3 (Homo sapiens, UniProt Q8NI60);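 for 0.001 uM KAM: median log10 fold change of treatment over DMSO control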;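 for 0.01 uM KAM: median log10 fold change of treatment over DMSO control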;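 for 0.1 uM KAM: median log10 fold change of treatment over DMSO control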;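 for 1 uM KAM: median log10 fold change of treatment over DMSO control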;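 for 10 uM KAM: median log10 fold change of treatment over DMSO control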
T1 construct: endogenous in cells; host or cells: K562
T1 sequence (Q8NI60 163-647): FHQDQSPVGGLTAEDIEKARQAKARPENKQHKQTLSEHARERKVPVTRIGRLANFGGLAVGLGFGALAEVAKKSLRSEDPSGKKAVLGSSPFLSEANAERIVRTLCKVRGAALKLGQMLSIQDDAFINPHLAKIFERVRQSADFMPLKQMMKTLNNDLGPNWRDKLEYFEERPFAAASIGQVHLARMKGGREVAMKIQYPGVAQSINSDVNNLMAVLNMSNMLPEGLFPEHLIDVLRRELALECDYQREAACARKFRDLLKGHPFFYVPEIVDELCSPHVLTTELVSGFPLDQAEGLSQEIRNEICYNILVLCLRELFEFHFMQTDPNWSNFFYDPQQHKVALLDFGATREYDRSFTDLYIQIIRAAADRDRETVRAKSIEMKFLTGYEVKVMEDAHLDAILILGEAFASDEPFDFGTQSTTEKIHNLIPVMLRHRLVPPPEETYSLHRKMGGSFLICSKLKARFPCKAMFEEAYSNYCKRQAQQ
Description: (§1) Supplement 12953_2017_125_MOESM1_ESM.zip/MS_Supp Info.xlsx, sheet "KAM" | column: 10 uM KAM; 1 uM KAM; 0.1 uM KAM; 0.01 uM KAM; 0.001 uM KAM; RB50

CDK16 = biological target: T2, CDK16 (Homo sapiens, UniProt Q00536)
T2 construct: endogenous in cells; host or cells: K562
T2 sequence (Q00536 whole entry): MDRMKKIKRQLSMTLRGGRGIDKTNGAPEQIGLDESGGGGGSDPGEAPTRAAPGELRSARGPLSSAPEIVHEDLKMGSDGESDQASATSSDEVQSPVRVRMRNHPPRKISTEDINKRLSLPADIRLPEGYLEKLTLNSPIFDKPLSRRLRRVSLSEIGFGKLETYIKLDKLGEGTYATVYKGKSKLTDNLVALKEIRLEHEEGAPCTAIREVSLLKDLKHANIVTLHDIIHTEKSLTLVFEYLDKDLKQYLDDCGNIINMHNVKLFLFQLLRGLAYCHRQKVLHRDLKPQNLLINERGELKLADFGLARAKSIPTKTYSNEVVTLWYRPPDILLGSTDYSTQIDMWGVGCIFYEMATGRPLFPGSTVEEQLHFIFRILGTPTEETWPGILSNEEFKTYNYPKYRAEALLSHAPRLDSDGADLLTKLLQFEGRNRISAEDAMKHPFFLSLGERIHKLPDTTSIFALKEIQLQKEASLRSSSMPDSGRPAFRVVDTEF
Description: as §1

MAP3K9 = biological target: T3, MAP3K9 (Homo sapiens, UniProt P80192)
T3 construct: endogenous in cells; host or cells: K562
T3 sequence (P80192 whole entry): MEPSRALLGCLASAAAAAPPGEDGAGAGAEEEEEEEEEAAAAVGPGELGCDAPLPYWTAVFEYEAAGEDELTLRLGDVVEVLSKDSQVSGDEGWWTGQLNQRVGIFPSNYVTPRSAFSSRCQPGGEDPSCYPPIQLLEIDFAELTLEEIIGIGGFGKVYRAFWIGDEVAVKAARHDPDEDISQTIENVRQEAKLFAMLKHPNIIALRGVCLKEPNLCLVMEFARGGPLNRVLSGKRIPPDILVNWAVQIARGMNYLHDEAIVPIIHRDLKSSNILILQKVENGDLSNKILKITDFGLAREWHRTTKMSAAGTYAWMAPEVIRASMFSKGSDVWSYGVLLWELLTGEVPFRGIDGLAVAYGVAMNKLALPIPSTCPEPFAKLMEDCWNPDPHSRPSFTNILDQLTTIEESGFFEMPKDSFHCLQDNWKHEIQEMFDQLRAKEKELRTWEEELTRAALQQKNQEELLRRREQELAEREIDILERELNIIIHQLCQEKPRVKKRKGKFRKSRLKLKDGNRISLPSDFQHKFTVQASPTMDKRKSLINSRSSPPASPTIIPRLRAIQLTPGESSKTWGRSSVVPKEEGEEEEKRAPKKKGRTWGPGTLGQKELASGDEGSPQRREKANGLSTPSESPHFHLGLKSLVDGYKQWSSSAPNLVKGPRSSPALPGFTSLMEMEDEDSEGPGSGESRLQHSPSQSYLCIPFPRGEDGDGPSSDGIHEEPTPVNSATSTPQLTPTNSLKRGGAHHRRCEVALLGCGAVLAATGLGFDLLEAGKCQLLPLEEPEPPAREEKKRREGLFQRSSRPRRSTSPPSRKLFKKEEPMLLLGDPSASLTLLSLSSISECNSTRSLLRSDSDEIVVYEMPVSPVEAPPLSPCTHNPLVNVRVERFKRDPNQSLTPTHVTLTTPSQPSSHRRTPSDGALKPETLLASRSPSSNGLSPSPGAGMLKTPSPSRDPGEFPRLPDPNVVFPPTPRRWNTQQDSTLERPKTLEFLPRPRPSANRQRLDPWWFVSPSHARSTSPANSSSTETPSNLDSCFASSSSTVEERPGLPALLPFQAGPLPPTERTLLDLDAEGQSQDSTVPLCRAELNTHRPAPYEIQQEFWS
Description: as §1

STK16 = biological target: T4, STK16 (Homo sapiens, UniProt O75716)
T4 construct: K562 cell pellets were thawed on ice and resuspended in cold Lysis buffer; endogenous in cells; host or cells: K562
T4 sequence (O75716 whole entry): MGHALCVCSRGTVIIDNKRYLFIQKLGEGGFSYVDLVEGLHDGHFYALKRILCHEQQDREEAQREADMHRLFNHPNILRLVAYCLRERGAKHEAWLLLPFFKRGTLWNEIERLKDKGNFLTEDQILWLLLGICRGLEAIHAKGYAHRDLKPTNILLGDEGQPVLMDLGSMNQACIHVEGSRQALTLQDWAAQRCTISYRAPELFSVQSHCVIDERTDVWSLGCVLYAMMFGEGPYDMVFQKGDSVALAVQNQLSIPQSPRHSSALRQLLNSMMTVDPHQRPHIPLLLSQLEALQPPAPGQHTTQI
Description: as §1

TAOK2 = biological target: T5, TAOK2 (Homo sapiens, UniProt Q9UL54);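 for 0.001 uM KAM: median log10 fold change of treatment over DMSO control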;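 for 0.01 uM KAM: median log10 fold change of treatment over DMSO control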;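 for 0.1 uM KAM: median log10 fold change of treatment over DMSO control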;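 for 1 uM KAM: median log10 fold change of treatment over DMSO control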;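 for 10 uM KAM: median log10 fold change of treatment over DMSO control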
T5 construct: endogenous in cells; host or cells: K562
T5 sequence (Q9UL54 1-1235): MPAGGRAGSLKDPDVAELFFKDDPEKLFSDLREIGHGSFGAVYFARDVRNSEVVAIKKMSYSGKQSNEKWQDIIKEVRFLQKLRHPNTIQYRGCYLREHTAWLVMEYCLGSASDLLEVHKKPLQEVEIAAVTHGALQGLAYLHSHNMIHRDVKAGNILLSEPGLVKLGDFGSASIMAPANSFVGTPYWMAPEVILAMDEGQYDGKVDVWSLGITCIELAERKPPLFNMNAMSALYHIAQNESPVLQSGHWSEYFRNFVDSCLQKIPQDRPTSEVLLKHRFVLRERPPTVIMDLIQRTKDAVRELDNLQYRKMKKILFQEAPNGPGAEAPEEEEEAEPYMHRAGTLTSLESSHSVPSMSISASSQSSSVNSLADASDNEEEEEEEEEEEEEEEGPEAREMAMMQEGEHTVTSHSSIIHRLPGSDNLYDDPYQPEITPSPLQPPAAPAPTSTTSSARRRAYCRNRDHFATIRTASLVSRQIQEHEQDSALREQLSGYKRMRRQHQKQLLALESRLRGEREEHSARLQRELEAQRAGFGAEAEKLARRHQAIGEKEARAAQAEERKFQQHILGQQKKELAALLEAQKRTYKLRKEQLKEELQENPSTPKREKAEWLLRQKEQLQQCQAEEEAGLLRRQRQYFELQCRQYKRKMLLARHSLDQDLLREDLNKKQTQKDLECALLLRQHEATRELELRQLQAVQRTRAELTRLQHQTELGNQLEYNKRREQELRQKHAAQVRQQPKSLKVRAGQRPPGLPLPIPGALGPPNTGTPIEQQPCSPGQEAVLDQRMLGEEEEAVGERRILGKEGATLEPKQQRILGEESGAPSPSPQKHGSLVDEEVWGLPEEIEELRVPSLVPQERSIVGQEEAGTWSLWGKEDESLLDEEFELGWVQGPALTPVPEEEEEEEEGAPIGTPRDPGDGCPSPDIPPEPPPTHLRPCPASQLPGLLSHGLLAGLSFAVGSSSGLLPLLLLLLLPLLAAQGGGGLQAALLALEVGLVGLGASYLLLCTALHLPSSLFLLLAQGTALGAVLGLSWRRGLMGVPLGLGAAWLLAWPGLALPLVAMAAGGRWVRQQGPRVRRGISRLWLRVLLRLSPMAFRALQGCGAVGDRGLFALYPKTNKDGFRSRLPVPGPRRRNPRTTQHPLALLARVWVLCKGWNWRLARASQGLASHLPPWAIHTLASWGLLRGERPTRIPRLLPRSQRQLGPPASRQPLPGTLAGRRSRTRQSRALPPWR
Description: as §1

WEE1 = biological target: T6, WEE1 (Homo sapiens, UniProt P30291)
T6 construct: endogenous in cells; host or cells: K562
T6 sequence (P30291 whole entry): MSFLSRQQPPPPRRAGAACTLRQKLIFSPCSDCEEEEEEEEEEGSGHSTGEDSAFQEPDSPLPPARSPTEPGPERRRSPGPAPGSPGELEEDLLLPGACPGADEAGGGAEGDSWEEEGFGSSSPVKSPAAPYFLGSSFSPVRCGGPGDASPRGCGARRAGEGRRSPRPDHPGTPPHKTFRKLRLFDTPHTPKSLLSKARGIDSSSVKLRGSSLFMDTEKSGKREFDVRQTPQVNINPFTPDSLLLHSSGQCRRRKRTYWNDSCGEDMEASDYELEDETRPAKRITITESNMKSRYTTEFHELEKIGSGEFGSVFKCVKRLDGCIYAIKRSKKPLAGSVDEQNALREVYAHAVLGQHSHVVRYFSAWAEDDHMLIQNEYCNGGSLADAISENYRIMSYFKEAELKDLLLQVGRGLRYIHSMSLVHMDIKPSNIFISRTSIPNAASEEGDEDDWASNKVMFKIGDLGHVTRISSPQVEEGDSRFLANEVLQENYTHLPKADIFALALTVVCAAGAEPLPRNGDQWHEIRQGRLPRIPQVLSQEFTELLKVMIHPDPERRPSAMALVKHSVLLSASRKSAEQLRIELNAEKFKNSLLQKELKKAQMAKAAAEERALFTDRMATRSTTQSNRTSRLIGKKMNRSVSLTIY
Description: as §1

[1] = KAM 0.001-10 uM, read-out: RB50 (the source's name)
[2] = read-out: RB50 (the source's name)

Structure (SMILES): N#CCc1ccc(Nc2nc(NCCCN)cc(Nc3cc(C4CC4)[nH]n3)n2)cc1 [KAM]
- IC50 (ADCK3; [1]): > 10 µM
- 0.001 uM KAM (ADCK3; relative to 0 uM KAM = 0): -0.001841
- 0.01 uM KAM (ADCK3; relative to 0 uM KAM = 0): 0.006632
- 0.1 uM KAM (ADCK3; relative to 0 uM KAM = 0): 0.0007813
- 1 uM KAM (ADCK3; relative to 0 uM KAM = 0): 0.03707
- 10 uM KAM (ADCK3; relative to 0 uM KAM = 0): -0.06845
- median Log10 fold change (CDK16; 0.001 uM KAM): 0.002002
- median Log10 fold change (CDK16; 0.01 uM KAM): 0.005918
- median Log10 fold change (CDK16; 0.1 uM KAM): -0.06683
- median Log10 fold change (CDK16; 1 uM KAM): -0.3041
- median Log10 fold change (CDK16; 10 uM KAM): -0.3301
- IC50 (CDK16; [2]): 1970 nM
- median Log10 fold change (MAP3K9; 0.001 uM KAM): -0.03702
- median Log10 fold change (MAP3K9; 0.01 uM KAM): 0.03625
- median Log10 fold change (MAP3K9; 0.1 uM KAM): -0.05744
- median Log10 fold change (MAP3K9; 1 uM KAM): -0.2576
- median Log10 fold change (MAP3K9; 10 uM KAM): -0.4734
- IC50 (MAP3K9; [2]): 1800 nM
- median Log10 fold change (STK16; 0.001 uM KAM): -0.0101
- median Log10 fold change (STK16; 0.01 uM KAM): -0.01878
- median Log10 fold change (STK16; 0.1 uM KAM): -0.1698
- median Log10 fold change (STK16; 1 uM KAM): -0.3768
- median Log10 fold change (STK16; 10 uM KAM): -0.4318
- IC50 (STK16; [2]): 673 nM
- IC50 (TAOK2; [1]): 6.63 µM
- 0.001 uM KAM (TAOK2; relative to 0 uM KAM = 0): -0.0603
- 0.01 uM KAM (TAOK2; relative to 0 uM KAM = 0): -0.04102
- 0.1 uM KAM (TAOK2; relative to 0 uM KAM = 0): -0.1359
- 1 uM KAM (TAOK2; relative to 0 uM KAM = 0): -0.1664
- 10 uM KAM (TAOK2; relative to 0 uM KAM = 0): -0.2974
- median Log10 fold change (WEE1; 0.001 uM KAM): -0.01698
- median Log10 fold change (WEE1; 0.01 uM KAM): -0.006292
- median Log10 fold change (WEE1; 0.1 uM KAM): -0.1327
- median Log10 fold change (WEE1; 1 uM KAM): -0.2838
- median Log10 fold change (WEE1; 10 uM KAM): -0.4489
- IC50 (WEE1; [2]): 1320 nM
